Read-outs that look alike come from different tables or passages of the source.
How the values were obtained:
[1] = Pharmacokinetics after oral administration in mice; format: in vivo, ICR mice; conditions: for AUC(0-inf) / AUC(0-t) / Cmax / half-life / MRT / Tmax / bioavailability: ICR, mouse, plasma; for bioavailability: po; for AUC∞/D / Cmax/D: dose normalized
Method: Mice were fasted with water ad libitum for at least 12 h before oral administration with enavogliflozin. Fifty-four mice were randomly divided into nine groups (n = 6 per group, Table 1) and were administered an enavogliflozin solution at doses of 0.3, 1, and 3 mg/kg via oral gavage. The drug was dissolved in a mixture of 10% DMSO and 90% saline. Blood samples were collected at 0, 0.083, 0.25, 0.5, 1, 2, 4, 8, and 24 h with the same procedures described above and provided in Table 1.
(§1) Concentrations of enavogliflozin in plasma and tissue homogenate samples were analyzed using an Agilent 6430 triple quadrupole liquid chromatography-mass spectrometry (LC–MS/MS) system (Agilent, Wilmington, DE, USA) following a previously published method.
(§2) The data were expressed as the means ± standard deviation for the groups. Pharmacokinetic parameters, such as the area under the plasma concentration–time curve during the period of observation (AUClast), AUC to infinite time (AUC∞), clearance (CL), and volume of distribution at steady-state (Vd,ss), the terminal half-life (t1/2), and mean residence time (MRT) were calculated using non-compartment analysis with WinNonlin software (version 5.1; Pharsights, Cary, NC, USA). The AUC ratios were calculated by dividing the AUClast of enavogliflozin in the tissue samples by the plasma AUClast values of enavogliflozin [15].

[2] = Pharmacokinetics after intravenous injection in rats; format: in vivo, Sprague Dawley (SD) rats; conditions: for AUC∞/D / Co/D: dose normalized; for Co / half-life / MRT / clearance / Vd / AUC(0-inf) / AUC(0-t): plasma; for half-life / MRT / clearance / Vd / AUC(0-inf) / AUC(0-t): rat; for half-life / MRT: incomplete elimination phase; for Vd: read-out: Vd,ss
Method: Twelve rats were randomly divided into three groups (n = 4 per each group) and injected with an enavogliflozin solution at doses of 0.3, 1, and 3 mg/kg. The drug was dissolved in a mixture of 10% DMSO and 90% saline and administered intravenously via the tail vein. Before blood sampling, rats were anesthetized using 2% isoflurane in a vaporizer with an oxygen flow of 0.8 L/min, for 5 min. Blood samples (approximately 100 µL) were collected at 0, 0.05, 0.33, 0.67, 1, 2, 4, 6, and 8 h via the jugular vein under isoflurane anesthesia using a heparin-treated 1 mL syringe (Jung Lim Co. Ltd., Jincheon, Korea). Samples were centrifuged at 12,000× g for 1 min to separate the plasma. An aliquot (30 µL) of each plasma sample was stored at −80 °C until analysis.
as §1, §2

[3] = Pharmacokinetics after oral administration in rats; format: in vivo, Sprague Dawley (SD) rats; conditions: for AUC∞/D / Cmax/D: dose normalized; for Cmax/D: in (ng/mL)/(mg/kg); for AUC(0-t) / AUC(0-inf) / Cmax / half-life / MRT / Tmax / bioavailability: rat, plasma; for bioavailability: po
Method: Rats were fasted with water ad libitum for at least 12 h before the oral administration of enavogliflozin. Eighteen rats were randomly divided into three groups (n = 6 per each group) and administered the drug dissolved in a mixture of 10% DMSO and 90% saline at doses of 0.3, 1, and 3 mg/kg by oral gavage. Blood samples were collected at 0, 0.083, 0.25, 0.5, 1, 2, 4, 6, 8, and 24 h with the same procedures described above.
as §1, §2

SGLT2 = system: SGLT2; set-up: method as in PMID 32183468; conditions: cited from earlier work

OC[C@H]1O[C@@H](c2cc(Cc3ccc(C4CC4)cc3)c(Cl)c3c2CCO3)[C@H](O)[C@@H](O)[C@@H]1O [enavogliflozin, (2S,3R,4R,5S,6R)-2-(7-chloro-6-(4-cyclopropylbenzyl) -2,3-dihydrobenzofuran-4-yl)-6-(hydroxymethyl)tetrahydro-2H-pyran-3,4,5-triol]
AUC(0-inf) ([1]; PO 0.3 mg/kg): 498 ± 79 ng·h/mL | AUC(0-t) ([1]; PO 0.3 mg/kg): 488 ± 77.9 ng·h/mL | Cmax ([1]; PO 0.3 mg/kg): 72.1 ± 10.5 ng/mL | half-life ([1]; PO 0.3 mg/kg): 4.3 ± 0.5 h | AUC(0-inf) ([1]; PO 1 mg/kg): 1370 ± 270 ng·h/mL | AUC(0-t) ([1]; PO 1 mg/kg): 1360 ± 270 ng·h/mL | Cmax ([1]; PO 1 mg/kg): 216 ± 94.1 ng/mL | half-life ([1]; PO 1 mg/kg): 3.5 ± 0.2 h | AUC(0-inf) ([1]; PO 3 mg/kg): 4760 ± 543 ng·h/mL | AUC(0-t) ([1]; PO 3 mg/kg): 4740 ± 532 ng·h/mL | Cmax ([1]; PO 3 mg/kg): 943 ± 231 ng/mL | half-life ([1]; PO 3 mg/kg): 3.3 ± 0.4 h | MRT ([1]; PO 0.3 mg/kg): 5.7 ± 0.5 h | Tmax ([1]; PO 0.3 mg/kg): 1.5 ± 0.5 h | MRT ([1]; PO 1 mg/kg): 5.7 ± 0.5 h | MRT ([1]; PO 3 mg/kg): 5.3 ± 0.5 h | Tmax ([1]; PO 3 mg/kg): 0.9 ± 0.3 h | bioavailability ([1]; 0.3 mg/kg, PO 0.3 mg/kg, AUC∞,PO / AUC∞,IV, read-out: BA (absolute bioavailability)): 97.2% | bioavailability ([1]; 1 mg/kg, PO 1 mg/kg, AUC∞,PO / AUC∞,IV, read-out: BA (absolute bioavailability)): 84.5% | bioavailability ([1]; 3 mg/kg, PO 3 mg/kg, AUC∞,PO / AUC∞,IV, read-out: BA (absolute bioavailability)): 93.7% | bioavailability ([1]; 3 mg/kg, range over doses 0.3, 1 and 3 mg/kg, read-out: Oral bioavailability): 84.5 to 97.2% | AUC∞/D ([1]; PO 0.3 mg/kg): 1658.9 ± 263.5 | Cmax/D ([1]; PO 0.3 mg/kg): 240.5 ± 35.0 | AUC∞/D ([1]; PO 1 mg/kg): 1373.8 ± 269.6 | Cmax/D ([1]; PO 1 mg/kg): 216.1 ± 94.1 | AUC∞/D ([1]; PO 3 mg/kg): 1587.0 ± 181.1 | Cmax/D ([1]; PO 3 mg/kg): 314.3 ± 76.9 | AUC∞/D ([2]; IV 0.3 mg/kg): 2831.6 ± 359.0 | Co/D ([2]; IV 0.3 mg/kg): 4231.2 ± 1720.0 | Co ([2]; IV 0.3 mg/kg): 1269.4 ± 516.0 ng/mL | AUC∞/D ([2]; IV 1 mg/kg): 2798.6 ± 551.4 | Co/D ([2]; IV 1 mg/kg): 3956.4 ± 1028.2 | Co ([2]; IV 1 mg/kg): 3956.4 ± 1028.2 ng/mL | AUC∞/D ([2]; IV 3 mg/kg): 2462.4 ± 429.3 | Co/D ([2]; IV 3 mg/kg): 3419.4 ± 1364.8 | Co ([2]; IV 3 mg/kg): 10,258.1 ± 4094.5 ng/mL | plasma concentrations at 24 h ([2]; IV 0.3, 1, and 3 mg/kg groups): below the detection limit | half-life ([2]; Sprague Dawley, IV 0.3 mg/kg): 2.6 ± 0.4 h | half-life ([2]; Sprague Dawley, IV 1 mg/kg): 2.9 ± 0.4 h | half-life ([2]; Sprague Dawley, IV 3 mg/kg): 4.3 ± 0.6 h | MRT ([2]; Sprague Dawley, IV 0.3 mg/kg): 2.5 ± 0.4 h | clearance ([2]; Sprague Dawley, IV 0.3 mg/kg, read-out: CL): 6 ± 0.8 mL/min/kg | Vd ([2]; Sprague Dawley, IV 0.3 mg/kg): 0.9 ± 0.2 L/kg | MRT ([2]; Sprague Dawley, IV 1 mg/kg): 2.9 ± 0.4 h | clearance ([2]; Sprague Dawley, IV 1 mg/kg, read-out: CL): 6.2 ± 1.4 mL/min/kg | Vd ([2]; Sprague Dawley, IV 1 mg/kg): 1.1 ± 0.1 L/kg | MRT ([2]; Sprague Dawley, IV 3 mg/kg): 5.1 ± 1.1 h | clearance ([2]; Sprague Dawley, IV 3 mg/kg, read-out: CL): 6.9 ± 1.2 mL/min/kg | Vd ([2]; Sprague Dawley, IV 3 mg/kg): 2.1 ± 0.4 L/kg | AUC(0-inf) ([2]; Sprague-Dawley, IV 0.3 mg/kg): 850 ± 108 ng·h/mL | AUC(0-t) ([2]; Sprague-Dawley, IV 0.3 mg/kg): 784 ± 94.4 ng·h/mL | AUC(0-inf) ([2]; Sprague-Dawley, IV 1 mg/kg): 2800 ± 551 ng·h/mL | AUC(0-t) ([2]; Sprague-Dawley, IV 1 mg/kg): 2510 ± 447 ng·h/mL | AUC(0-inf) ([2]; Sprague-Dawley, IV 3 mg/kg): 7390 ± 1290 ng·h/mL | AUC(0-t) ([2]; Sprague-Dawley, IV 3 mg/kg): 5610 ± 751 ng·h/mL | clearance ([2]; Sprague-Dawley, IV 0.3–3 mg/kg, all doses together, read-out: Systemic clearance): 6.35 ± 1.14 mL/min/kg | AUC∞/D ([3]; PO 0.3 mg/kg): 1757.6 ± 643.4 | Cmax/D ([3]; PO 0.3 mg/kg): 171.2 ± 49.9 | AUC∞/D ([3]; PO 1 mg/kg): 1649.3 ± 483.4 | Cmax/D ([3]; PO 1 mg/kg): 183.0 ± 95.6 | AUC∞/D ([3]; PO 3 mg/kg): 1385.4 ± 361.8 | Cmax/D ([3]; PO 3 mg/kg): 100.2 ± 36.1 | AUC(0-t) ([3]; Sprague Dawley, PO 0.3 mg/kg): 489 ± 192 ng·h/mL | AUC(0-t) ([3]; Sprague Dawley, PO 1 mg/kg): 1350 ± 565 ng·h/mL | AUC(0-inf) ([3]; Sprague-Dawley, PO 0.3 mg/kg): 527 ± 193 ng·h/mL | Cmax ([3]; Sprague-Dawley, PO 0.3 mg/kg): 51.3 ± 15 ng/mL | half-life ([3]; Sprague-Dawley, PO 0.3 mg/kg): 6.3 ± 2.3 h | AUC(0-inf) ([3]; Sprague-Dawley, PO 1 mg/kg): 1650 ± 483 ng·h/mL | Cmax ([3]; Sprague-Dawley, PO 1 mg/kg): 183 ± 95.6 ng/mL | half-life ([3]; Sprague-Dawley, PO 1 mg/kg): 6.9 ± 2.1 h | AUC(0-inf) ([3]; Sprague-Dawley, PO 3 mg/kg): 4160 ± 1090 ng·h/mL | AUC(0-t) ([3]; Sprague-Dawley, PO 3 mg/kg): 3250 ± 572 ng·h/mL | Cmax ([3]; Sprague-Dawley, PO 3 mg/kg): 301 ± 108 ng/mL | half-life ([3]; Sprague-Dawley, PO 3 mg/kg): 10.3 ± 7.5 h | MRT ([3]; Sprague-Dawley, PO 0.3 mg/kg): 8.5 ± 3.2 h | Tmax ([3]; Sprague-Dawley, PO 0.3 mg/kg): 2.5 ± 2.4 h | MRT ([3]; Sprague-Dawley, PO 1 mg/kg): 9.9 ± 3.6 h | Tmax ([3]; Sprague-Dawley, PO 1 mg/kg): 2.5 ± 2.5 h | MRT ([3]; Sprague-Dawley, PO 3 mg/kg): 14.9 ± 10.6 h | Tmax ([3]; Sprague-Dawley, PO 3 mg/kg): 2.9 ± 2.1 h | bioavailability ([3]; Sprague-Dawley, 0.3 mg/kg, PO 0.3 mg/kg, AUC∞,PO / AUC∞,IV, read-out: BA (absolute bioavailability)): 62.1% | bioavailability ([3]; Sprague-Dawley, 1 mg/kg, PO 1 mg/kg, AUC∞,PO / AUC∞,IV, read-out: BA (absolute bioavailability)): 58.9% | bioavailability ([3]; Sprague-Dawley, 3 mg/kg, PO 3 mg/kg, AUC∞,PO / AUC∞,IV, read-out: BA (absolute bioavailability)): 56.3% | bioavailability ([3]; Sprague-Dawley, 3 mg/kg, range over doses 0.3, 1 and 3 mg/kg, read-out: Oral bioavailability): 56.3 to 62.1% | IC50 (SGLT2): 0.8 ± 0.3 nM | mode of SGLT2 inhibition (SGLT2; restrained recovery of SGLT2 activity after removal): reversibly and competitively inhibited SGLT2 | difference in IC50 values for SGLT2 versus SGLT1 (SGLT2; selectivity SGLT2 over SGLT1): 667 fold

From PMC9230590, “Pharmacokinetics and Tissue Distribution of Enavogliflozin in Mice and Rats” (Pharmaceutics, 2022)
